Assay [1] relates to guinea pig ileum longitudinal muscle (electrically induced twitch). Nature of the assay: Guinea pig ileum test. It is filed as cell-based. Particulars: ratio of IC50 of reference Met^5-enkephalin to IC50 of test compound in same preparation, averaged (N=4); Met^5-enkephalin = 100. The procedure: Adult male guinea pigs (Charles River, Hartley strain) weighing 300-500 g. are decapitated, and the terminal ileum is exposed by reflecting the overlying cecum, severed at the ileocecal juncture, and removed while cutting the mesenteric attachments to avoid excessive traction on the tissue. The ileum (about 30 cm. in length) is transferred to a beaker containing warm modified Krebs-Henseleit solution (118 mM sodium chloride, 4.75 mM potassium chloride, 2.54 mM calcium chloride, 1.19 mM potassium dihydrogen phosphate, 1.2 mM magnesium sulfate, 25 mM sodium bicarbonate, 11 mM glucose, 20 μM choline chloride and 0.125 μM pyrilamine maleate). The terminal (aboral) portion (about 10 cm. in length) is discarded, and segments (3-4 cm. in length) are cut from the remainder and gently slid onto a glass rod (5-6 mm. in diameter) and arranged so that the mesenteric attachment is in a straight line. A cotton swab moistened in the solution is then carefully used to separate the longitudinal muscle from the underlying circular muscle. The longitudinal muscle and adhering myenteric plexus is then gently removed from the remaining tissue with forceps.
Strips of this prepared longitudinal muscle are mounted in a double-jacketed organ bath (5 ml.) under tension (1.0 g.), connected to isometric transducers (Grass FT 0.03), bathed in the modified Krebs-Henseleit solution described above, aerated with oxygen-carbon dioxide (95:5) and maintained at 37° C.
Stimulators (Grass S-44) are set to deliver repetitive monophasic square wave field stimulation (supramaximal voltage, 0.10 Hz., 0.25 msec. duration) through platinum ring electrodes at the top and bottom of the bath. Regular contractions of the muscle, which result from electrically-induced liberation of acetylcholine from postganglionic parasympathetic nerves, are recorded on a polygraph (Grass model 5). Following tissue equilibration (45-60 min.) and repeated washing (every 10 min.) an aqueous solution of a reference or test compound is added to the bath in a microliter volume (1.25-250 μl) and reductions in muscle twitch height are recorded. More compound can be added […] first washing the preparation.
From the results a half-mazimal inhibitory concentration (IC50) value for the compound is computed by regression analysis of a linear plot of logarithm of concentration against percent of inhibition of twitch height (probits). The ratio of the IC50 value of a reference compound to that of a test compound tested in the same preparation is the molar potency ratio. Usually four preparations are tested simultaneously by the same person (N=4), and the resulting four molar potency ratios are averaged.
The following results were obtained using the examples as test compounds and Met^5 -enkephalin as the reference compound.

The test system of assay [2] is Male Swiss-Webster mice. Nature of the assay: Mouse acetylcholine writhing test. It is filed as in vivo. Particulars: 20 min, subcutaneous, acetylcholine 3.2 mg./kg. i.p. 20 min after dosing, 95% confidence limits in parentheses. The procedure: Male Swiss-Webster mice each weighing 18-24 g. are treated subcutaneously (10 ml./kg. injection volume) or orally with the test compound in an aqueous vehicle. Twenty minutes thereafter each mouse is injected intraperitoneally with acetylcholine (3.2 mg./kg.) in aqueous sodium chloride (0.9%). This dose of acetylcholine causes one or more characteristic writhes in the two minute period following injection in control mice which receive the aqueous vehicle not containing the test compound. […] Test compounds are screened at doses of 100 and 30 mg./kg. subcutaneously and 300 and 100 mg./kg. orally using 15 mice at each dose level. ED50 values for active compounds are estimated by probit analysis of quantal scores at four or more dose levels using 15 mice at each dose level.

Assay [3] has as its system rat. Particulars: rat tail flick, relative to morphine, cited from earlier work.
For assay [4], the system named is mouse vas deferens. Particulars: cited from earlier work.
The test system of assay [5] is guinea pig ileum. Conditions: cited from earlier work.

For `C[C@H](C(=O)NCCCc1ccccc1)N(C)C(=O)[C@@H](N)Cc1ccc(O)cc1` [Example 1, L-tyrosyl-N^2-methyl-N-(3-phenylpropyl)-D-alaninamide], in assay [1], the “Average Molar Potency Ratio” value is listed as 293. In assay [2], the ED50 was 5.5 mg/kg. Taken in the same sequence, the figures for `CN[C@@H](Cc1ccc(O)cc1)C(=O)N[C@H](C)C(=O)NCCCc1ccccc1` [Example 2, N-methyl-L-tyrosyl-N-(3-phenylpropyl)-D-alaninamide] were 194 and 10 to 30 mg/kg.

For the molecule `CN[C@@H](Cc1ccc(O)cc1)C(=O)N(C)[C@H](C)C(=O)NCCCc1ccccc1` [Example 3, N-methyl-L-tyrosyl-N^2-methyl-N-(3-phenylpropyl)-D-alaninamide], the “Average Molar Potency Ratio” value in assay [1] was found to be 200. The ED50 in assay [2] stood at 9.4 mg/kg. Consider `CCN(C(=O)[C@@H](N)Cc1ccc(O)cc1)[C@H](C)C(=O)NCCCc1ccccc1` [Example 4, L-tyrosyl-N^2-ethyl-N-(3-phenylpropyl)-D-alaninamide], for which the “Average Molar Potency Ratio” value in assay [1] was determined as 12. On to `C[C@H](C(=O)NCCCc1ccc(Cl)cc1)N(C)C(=O)[C@@H](N)Cc1ccc(O)cc1` [Example 5, L-tyrosyl-N^2-methyl-N-[3-(4-chlorophenyl)propyl]-D-alaninamide], for which, in assay [1], the “Average Molar Potency Ratio” value is on record as 51.

Consider `C[C@H](C(=O)NCCCc1ccc(C(F)(F)F)cc1)N(C)C(=O)[C@@H](N)Cc1ccc(O)cc1` [Example 6, L-tyrosyl-N^2-methyl-N-[3-(4-trifluoromethylphenyl)propyl]-D-alaninamide], for which, in assay [1], the “Average Molar Potency Ratio” value turned out to be 13.

On to `C[C@H](C(=O)NCCCc1ccc(F)cc1)N(C)C(=O)[C@@H](N)Cc1ccc(O)cc1` [Example 7, L-tyrosyl-N^2-methyl-N-[3-(4-fluorophenyl)propyl]-D-alaninamide], for which, in assay [1], the “Average Molar Potency Ratio” value is on record as 178. In the case of `C[C@@H](NC(=O)[C@@H](N)Cc1ccc(O)cc1)C(N)=O` [H-Tyr-D-Ala-NH2], in assay [3] (intravenous), the “times less potent than morphine, intravenously” value is recorded as “greater than 10 times”. In addition, the “times less potent than morphine, intraventricularly” value in assay [3] (intraventricular) is listed as 200 times. Consider `C[C@@H](NC(=O)[C@@H](N)Cc1ccc(O)cc1)C(=O)NCCNCCc1ccccc1` [HTyrD-AlaNH(CH2)2 NH(CH2)2 Phenyl], for which the “potency relative to Met-enkephaline” value in assay [4] and in assay [5] was below 1% in each case. Consider Met^5 -enkephalin [reference compound], for which the “Average Molar Potency Ratio” value in assay [1] is given as 100.

These data come from patent publication US4533655A, “Analgesic dipeptide amides and method of use and compositions thereof” (Sterling Drug Inc., priority 1982, dated 1985).
